Here are results for ten compounds from ChEMBL document CHEMBL1201862, “PubChem BioAssay data set” (2004).

Among the test systems are Malme-3M; PC-3; UACC-257; LXFL 529; A549; UACC-62; SW-620; RXF 393; HCT-15; KM12; COLO 205; NCI-H460; NCI/ADR-RES; A498; SN12C; EKVX; UO-31; SK-MEL-28; NCI-H23; BT-549.
Common to all, as to experiment: NCI-60 cell line screen, 48 h

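The compound was tested at five concentrations on cells cultured in 96-well plates, with a 48-hour exposure period. GI50 marks 50% less growth.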 Calls of active or inactive are those of the source. No stated cut-off is given here; in the data, active = GI50 up to about 1.1 µM and inactive = higher.

With `Cc1cc(O)nc(NN2C(Cl)C(=O)C2c2ccc(Cl)cc2)n1` (configuration not stated), the GI50 in the test with Malme-3M is 16.8 µM (inactive); with PC-3 it was 32.7 µM (inactive); with UACC-257, 21.6 µM (inactive); in the test on LXFL 529, 5.86 µM (inactive); with A549, 26.3 µM (inactive); in the test on UACC-62, 16.7 µM (inactive). Further, the GI50 was 22.5 µM (inactive) in the test with SW-620; 17.4 µM (inactive) in the test on RXF 393; 15.1 µM in the test with HCT-15; 10.6 µM (inactive) in the test on KM12; 17.2 µM (inactive) in the test with COLO 205; 16.4 µM (inactive) in the test with NCI-H460. The GI50 in the test on NCI/ADR-RES was 20.7 µM (inactive); in the test on A498 it was 18.2 µM (inactive); in the test on SN12C it was 16.7 µM (inactive); in the test on EKVX it was 16.6 µM (inactive); with UO-31 it was 25.6 µM (inactive); in the test on SK-MEL-28 it was 18.2 µM (inactive). Besides, the GI50 was 15.8 µM (inactive) in the test with NCI-H23 and 20.5 µM (inactive) in the test with BT-549.

`FC(F)(F)c1nc2ccc3[nH]c4c(-c5ccccc5)nccc4c3c2[nH]1`: the GI50 in the test on Malme-3M, in the test with UACC-257, in the test on LXFL 529, with A549, with UACC-62 and with SW-620 was > 100 µM (inactive) in each case. Moreover, the GI50 in the test with RXF 393 is > 100 µM (inactive); in the test on HCT-15 it was greater than 100 µM; in the test with KM12, > 100 µM (inactive); in the test on COLO 205, > 100 µM (inactive); in the test with NCI-H460, > 80 µM (inactive); with A498 it was > 100 µM (inactive). The GI50 in the test on SN12C, in the test with EKVX, in the test on UO-31, in the test on SK-MEL-28 and with NCI-H23 was > 100 µM (inactive) each time.

For `CC1(C)OCN(c2ccc(N3CCOCC3)cc2)Cn2c1nc1ccccc12`, the GI50 in the test on Malme-3M was > 100 µM (inactive); in the test on UACC-257 it was 46.1 µM (inactive); in the test with LXFL 529, > 100 µM (inactive); in the test with A549, > 100 µM (inactive); in the test on UACC-62 it was > 100 µM (inactive); with SW-620 it was 34.1 µM (inactive). Further, the GI50 with RXF 393 was 39.1 µM (inactive); with HCT-15, greater than 100 µM; in the test with KM12, > 100 µM (inactive); in the test on COLO 205, > 100 µM (inactive); in the test with NCI-H460, > 100 µM (inactive); in the test on A498, > 100 µM (inactive). Also, the GI50 in the test with SN12C, in the test with EKVX, in the test on UO-31, in the test with SK-MEL-28 and in the test with NCI-H23 was > 100 µM (inactive) each time.

For `CC(=O)OC12CCCCC1C1(CCCC1)NC2=O` (configuration not stated), the GI50 with Malme-3M, in the test with UACC-257, in the test with LXFL 529, with A549, in the test on UACC-62 and in the test on SW-620 was > 100 µM (inactive) throughout. For the same compound, the GI50 was > 100 µM (inactive) with RXF 393; greater than 100 µM in the test with HCT-15; > 100 µM (inactive) in the test on KM12; > 100 µM (inactive) with NCI-H460; > 100 µM (inactive) with A498; > 100 µM (inactive) in the test on SN12C. The GI50 with EKVX, in the test on UO-31, in the test with SK-MEL-28 and in the test on NCI-H23 was > 100 µM (inactive) in each case.

Take `CC1(Cl)C(=O)NC(=O)N([C@H]2C[C@H](O)[C@@H](CO)O2)C1N=[N+]=[N-]` (some centres not stated): the GI50 in the test on Malme-3M, in the test on UACC-257, with LXFL 529, in the test with A549, in the test with UACC-62 and in the test with SW-620 was > 100 µM (inactive) each time. In addition, the GI50 in the test with RXF 393 was > 100 µM (inactive); in the test on HCT-15 it was greater than 100 µM; with KM12, > 100 µM (inactive); in the test on COLO 205, > 100 µM (inactive); in the test with NCI-H460, > 100 µM (inactive); in the test with A498, > 100 µM (inactive). Further, the GI50 is > 100 µM (inactive) in the test with SN12C; > 100 µM (inactive) in the test on EKVX; > 100 µM (inactive) in the test with UO-31; > 61.1 µM (inactive) in the test on SK-MEL-28; > 100 µM (inactive) in the test with NCI-H23.

In the case of `Cc1ccc(NC(=O)C(=O)C2NC(=S)NC2=O)c([N+](=O)[O-])c1` (configuration not stated), the GI50 in the test on Malme-3M, in the test on UACC-257, with LXFL 529, in the test with A549, in the test on UACC-62 and with SW-620 was > 100 µM (inactive) in each case. Besides, the GI50 was > 100 µM (inactive) in the test with RXF 393; greater than 100 µM with HCT-15; > 100 µM (inactive) in the test with KM12; > 100 µM (inactive) in the test with COLO 205; > 100 µM (inactive) in the test on NCI-H460; > 100 µM (inactive) in the test on A498. The GI50 with SN12C is > 100 µM (inactive); in the test with EKVX it was 57.3 µM (inactive); with UO-31, > 100 µM (inactive); in the test with SK-MEL-28, > 100 µM (inactive); in the test with NCI-H23, > 100 µM (inactive).

For `CC(=O)C1C(=O)C(=O)N(CCN2C(=O)C(=O)C(C(C)=O)C2=O)C1=O` (configuration not stated), the GI50 with Malme-3M, in the test with UACC-257, in the test on LXFL 529, in the test with UACC-62, in the test with SW-620 and with RXF 393 was > 100 µM (inactive) throughout. The GI50 is greater than 100 µM in the test with HCT-15; > 100 µM (inactive) in the test on KM12; > 100 µM (inactive) with COLO 205; > 100 µM (inactive) in the test on NCI-H460; > 100 µM (inactive) in the test with A498; > 100 µM (inactive) in the test on SN12C. Moreover, the GI50 with EKVX, with UO-31, in the test with SK-MEL-28 and in the test on NCI-H23 was > 100 µM (inactive) each time.

Consider `O=C1[C@H]2ON(c3ccccc3)C(c3ccccc3)[C@H]2C(=O)N1c1ccc(Cc2ccc(N3C(=O)[C@@H]4ON(c5ccccc5)C(c5ccccc5)[C@@H]4C3=O)cc2)cc1` (some centres not stated), for which the GI50 in the test with Malme-3M, in the test with UACC-257, in the test with LXFL 529, in the test on A549, in the test with UACC-62 and in the test on SW-620 was > 100 µM (inactive) in each case. For the same compound, the GI50 in the test on RXF 393 was 88.1 µM (inactive); with HCT-15, greater than 100 µM; with KM12 it was > 100 µM (inactive); with COLO 205, > 100 µM (inactive); in the test on NCI-H460, > 100 µM (inactive); in the test with A498, > 100 µM (inactive). In addition, the GI50 with SN12C, in the test on UO-31, in the test with SK-MEL-28 and in the test with NCI-H23 was > 100 µM (inactive) in each case.

`C=C1C(=O)C23C(O)C1CC[C@H]2C12CCCC(C)(COC(C)=O)[C@H]1[C@H](O)[C@]3(O)OC2` (some centres not stated): the GI50 is 1.42 µM (inactive) with Malme-3M; 1.88 µM (inactive) in the test with PC-3; 1.14 µM (inactive) in the test with UACC-257; 0.427 µM (active) in the test on LXFL 529; 3.94 µM (inactive) in the test on A549; 1.58 µM (inactive) in the test on UACC-62. For the same compound, the GI50 was 0.519 µM (active) in the test with SW-620; 0.407 µM (active) in the test on RXF 393; 0.817 µM in the test with HCT-15; 2.37 µM (inactive) in the test on KM12; 1.46 µM (inactive) with COLO 205; 2.24 µM (inactive) with NCI-H460. Moreover, the GI50 in the test with A498 was 2.32 µM (inactive); with SN12C, 1.71 µM (inactive); in the test with EKVX it was 4.01 µM (inactive); in the test with UO-31 it was 1.77 µM (inactive); with SK-MEL-28, 1.14 µM (inactive); in the test on NCI-H23 it was 1.87 µM (inactive). The GI50 in the test with BT-549 was 1.48 µM (inactive).

As to `c1cnc2nc3n(c2c1)CSC3`, the GI50 with Malme-3M, in the test with UACC-257, with LXFL 529, with A549, with UACC-62 and in the test on SW-620 was > 100 µM (inactive) each time. The GI50 in the test on RXF 393 is > 100 µM (inactive); in the test on HCT-15 it was greater than 100 µM; in the test with KM12 it was > 100 µM (inactive); in the test with COLO 205 it was > 100 µM (inactive); in the test on NCI-H460 it was > 100 µM (inactive); in the test on A498, > 100 µM (inactive). The GI50 with SN12C, with EKVX, in the test with UO-31, with SK-MEL-28 and in the test on NCI-H23 was > 100 µM (inactive) each time.
